Two compounds from PMC7407272, “Induction of Lysosome Membrane Permeabilization as a Therapeutic Strategy to Target Pancreatic Cancer Stem Cells” (Cancers, 2020) can be followed below.

One assay has as its target T1, HASPIN (Homo sapiens, UniProt Q8TF76).
T1 sequence (Q8TF76 1-798): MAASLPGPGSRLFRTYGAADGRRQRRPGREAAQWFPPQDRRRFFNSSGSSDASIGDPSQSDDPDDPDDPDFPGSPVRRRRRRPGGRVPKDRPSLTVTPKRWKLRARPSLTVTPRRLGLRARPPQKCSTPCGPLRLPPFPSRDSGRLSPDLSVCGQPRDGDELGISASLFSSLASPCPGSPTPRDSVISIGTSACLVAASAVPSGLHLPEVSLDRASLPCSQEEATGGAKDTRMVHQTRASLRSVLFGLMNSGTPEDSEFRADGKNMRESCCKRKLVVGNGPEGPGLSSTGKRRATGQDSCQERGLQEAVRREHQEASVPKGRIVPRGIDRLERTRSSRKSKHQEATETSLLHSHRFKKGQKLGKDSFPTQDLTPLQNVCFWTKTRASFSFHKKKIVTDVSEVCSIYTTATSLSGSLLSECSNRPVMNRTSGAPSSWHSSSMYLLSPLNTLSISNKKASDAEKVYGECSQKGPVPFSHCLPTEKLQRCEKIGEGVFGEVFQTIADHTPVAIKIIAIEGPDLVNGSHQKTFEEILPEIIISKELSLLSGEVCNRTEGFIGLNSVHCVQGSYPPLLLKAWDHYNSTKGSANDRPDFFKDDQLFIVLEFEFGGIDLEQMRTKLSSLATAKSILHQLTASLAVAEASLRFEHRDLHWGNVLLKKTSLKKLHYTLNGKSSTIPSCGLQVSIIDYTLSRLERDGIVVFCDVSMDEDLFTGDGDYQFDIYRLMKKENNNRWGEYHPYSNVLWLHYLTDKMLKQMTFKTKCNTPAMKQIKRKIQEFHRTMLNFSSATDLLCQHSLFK
In words: HASPIN ADP GLO kinase assay. The arrangement: purchased ProQinase, Freiburg, Germany. Particulars: 150 μM ATP. The format is biochemical. The protocol:
PIM1/3 kinase activities were measured as previously described in Martínez-Gonzalez et al.. HASPIN activity was measured using the commercial ADP GLO assay (Promega), a homogeneous assay measuring ADP accumulation, as a universal product of kinase activity. The assay was done following general manufacturer recommendations and adapting protein to optimal conditions.

Assay [1] relates to sphere-derived PDAC2 cells. In words: Tumor initiating capacity of pre-treated cells injected subcutaneously. The settings on record: cells treated 3 days with 0.1 µg/mL GEM or compound at 1.25 µM, then injected subcutaneously. The format is in vivo, NU-Foxn1nu nude mice. The procedure:
Female 6- to 8-week-old NU-Foxn1nu nude mice (Envigo, Spain) were subcutaneously injected with control or pre-treated 1 × 10^4 PDAC cells in 50 µL of Matrigel^TM (Corning). Tumor growth was monitored bi-weekly for up to 10 weeks. For Siramesine experiments, mice were subcutaneously implanted with PDAC1 and PDAC3 PDXs. After 4 weeks of tumor growth, mice were randomized into treatment groups (5 mice per group). Mice were treated with Siramesine twice a week (30 mg/kg by oral gavage formulated in 0.5% methylcellulose 15 cP in 0.9% NaCl solution) for ~4 weeks. Gemcitabine (GEMZAR®, Eli Lilly, Indianapolis, IN, USA) was administered twice a week (125 mg/kg i.p.) for ~4 weeks. Tumor volumes (mm^3) were determined twice per week using a digital caliper. Mice were sacrificed at 24 days post treatment initiation and tumors were extracted and analyzed by flow cytometry as described above. For second generation tumor formation, 1000 and 100 cells of indicated treatment groups were resuspended in Matrigel ^TM and injected subcutaneously in recipient NU-Foxn1nu nude mice and tumor formation was monitored for 10 weeks. Mice were housed according to institutional guidelines and all experiments were performed in compliance with the institutional guidelines for the welfare of experimental animals approved by the Universidad Autónoma de Madrid Ethics Committee (CEI 60-1057-A068) or by the Instituto de Salud Carlos III Ethics Committee (CBA12_2014-v3) and La Comunidad de Madrid (PROEX 335/14 or PROEX 53/14) and in accordance with the guidelines for Ethical Conduct in the Care and Use of Animals as stated in The International Guiding Principles for Biomedical Research involving Animals, developed by the Council for International Organizations of Medical Sciences (CIOMS).

A further assay deals with T2, ARK5 (Homo sapiens, UniProt O60285).
T2 construct: purchased DiscoveRx KINOMEscan
In words: KINOMEscan. The class given is binding. Particulars: read-out: % Ctrl.

A further assay concerns the target T3, MYO3A (Homo sapiens, UniProt Q8NEV4).
T3 construct: purchased DiscoveRx KINOMEscan
Briefly: KINOMEscan. The class given is binding. Particulars: read-out: % Ctrl.

Another assay concerns the target T4, JAK3(JH1D.-cat.) (Homo sapiens, UniProt P52333).
T4 construct: JAK3(JH1D.-cat.); purchased DiscoveRx KINOMEscan
In words: KINOMEscan. The format is binding. The settings on record: read-out: % Ctrl.

The target of a further assay is T5, MYLK (Homo sapiens, UniProt Q15746).
T5 construct: purchased DiscoveRx KINOMEscan
Briefly: KINOMEscan. The class given is binding. Particulars: read-out: % Ctrl.

The target of the next assay is T6, STK39 (Homo sapiens, UniProt Q9UEW8).
T6 construct: purchased DiscoveRx KINOMEscan
In words: KINOMEscan. Particulars: read-out: % Ctrl. The class given is binding.

A further assay concerns the target T7, LZK (Homo sapiens, UniProt O43283).
T7 construct: purchased DiscoveRx KINOMEscan
Briefly: KINOMEscan. The class given is binding. The settings on record: read-out: % Ctrl.

A further assay has as its target T8, PIK3CA(Q546K) (Homo sapiens, UniProt P42336, Q546K).
T8 construct: purchased DiscoveRx KINOMEscan
In words: KINOMEscan. The format is binding. The settings on record: read-out: % Ctrl.

The target in a further assay is T9, CAMK1D (Homo sapiens, UniProt Q8IU85).
T9 construct: purchased DiscoveRx KINOMEscan
Briefly: KINOMEscan. The class given is binding. Particulars: read-out: % Ctrl.

The next assay deals with T10, TAOK3 (Homo sapiens, UniProt Q9H2K8).
T10 construct: purchased DiscoveRx KINOMEscan
Briefly: KINOMEscan. The format is binding. The settings on record: read-out: % Ctrl.

For another assay, the target named is T11, LIMK1 (Homo sapiens, UniProt P53667).
T11 construct: purchased DiscoveRx KINOMEscan
Briefly: KINOMEscan. The format is binding. Particulars: read-out: % Ctrl.

In another assay the target is T12, LCK (Homo sapiens, UniProt P06239).
T12 construct: purchased DiscoveRx KINOMEscan
Briefly: KINOMEscan. The format is binding. The settings on record: read-out: % Ctrl.

The next assay deals with T13, p38-beta (Homo sapiens, UniProt Q15759).
T13 construct: purchased DiscoveRx KINOMEscan
Briefly: KINOMEscan. The format is binding. The settings on record: read-out: % Ctrl.

In another assay the target is T14, HUNK (Homo sapiens, UniProt P57058).
T14 construct: purchased DiscoveRx KINOMEscan
Briefly: KINOMEscan. Particulars: read-out: % Ctrl. The class given is binding.

The target of the next assay is T15, MELK (Homo sapiens, UniProt Q14680).
T15 construct: purchased DiscoveRx KINOMEscan
Briefly: KINOMEscan. The settings on record: read-out: % Ctrl. The class given is binding.

The next assay addresses T16, ACVRL1 (Homo sapiens, UniProt P37023).
T16 construct: purchased DiscoveRx KINOMEscan
In words: KINOMEscan. Particulars: read-out: % Ctrl. The class given is binding.

In another assay the target is T17, MST2 (Homo sapiens, UniProt Q13188).
T17 construct: purchased DiscoveRx KINOMEscan
In words: KINOMEscan. The class given is binding. The settings on record: read-out: % Ctrl.

The target in another assay is T18, CDK11 (Homo sapiens, UniProt Q9BWU1).
T18 construct: purchased DiscoveRx KINOMEscan
Briefly: KINOMEscan. The format is binding. Particulars: read-out: % Ctrl.

Another assay deals with T19, PIK3CA(M1043I) (Homo sapiens, UniProt P42336, M1043I).
T19 construct: purchased DiscoveRx KINOMEscan
In words: KINOMEscan. The format is binding. The settings on record: read-out: % Ctrl.

T18 sequence (Q9BWU1 whole entry): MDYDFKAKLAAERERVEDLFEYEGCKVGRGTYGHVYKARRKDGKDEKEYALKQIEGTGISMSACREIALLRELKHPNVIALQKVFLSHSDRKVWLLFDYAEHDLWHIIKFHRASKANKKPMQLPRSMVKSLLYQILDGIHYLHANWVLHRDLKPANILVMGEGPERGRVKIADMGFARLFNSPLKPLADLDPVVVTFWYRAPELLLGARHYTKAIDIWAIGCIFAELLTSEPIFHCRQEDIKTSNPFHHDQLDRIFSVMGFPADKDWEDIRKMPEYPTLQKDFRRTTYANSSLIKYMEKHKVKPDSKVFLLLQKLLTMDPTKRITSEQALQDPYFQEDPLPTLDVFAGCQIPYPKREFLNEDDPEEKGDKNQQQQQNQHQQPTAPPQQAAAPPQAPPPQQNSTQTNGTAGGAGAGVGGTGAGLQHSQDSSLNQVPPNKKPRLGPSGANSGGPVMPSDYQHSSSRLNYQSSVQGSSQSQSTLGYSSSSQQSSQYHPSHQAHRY
T3 sequence (Q8NEV4 whole entry): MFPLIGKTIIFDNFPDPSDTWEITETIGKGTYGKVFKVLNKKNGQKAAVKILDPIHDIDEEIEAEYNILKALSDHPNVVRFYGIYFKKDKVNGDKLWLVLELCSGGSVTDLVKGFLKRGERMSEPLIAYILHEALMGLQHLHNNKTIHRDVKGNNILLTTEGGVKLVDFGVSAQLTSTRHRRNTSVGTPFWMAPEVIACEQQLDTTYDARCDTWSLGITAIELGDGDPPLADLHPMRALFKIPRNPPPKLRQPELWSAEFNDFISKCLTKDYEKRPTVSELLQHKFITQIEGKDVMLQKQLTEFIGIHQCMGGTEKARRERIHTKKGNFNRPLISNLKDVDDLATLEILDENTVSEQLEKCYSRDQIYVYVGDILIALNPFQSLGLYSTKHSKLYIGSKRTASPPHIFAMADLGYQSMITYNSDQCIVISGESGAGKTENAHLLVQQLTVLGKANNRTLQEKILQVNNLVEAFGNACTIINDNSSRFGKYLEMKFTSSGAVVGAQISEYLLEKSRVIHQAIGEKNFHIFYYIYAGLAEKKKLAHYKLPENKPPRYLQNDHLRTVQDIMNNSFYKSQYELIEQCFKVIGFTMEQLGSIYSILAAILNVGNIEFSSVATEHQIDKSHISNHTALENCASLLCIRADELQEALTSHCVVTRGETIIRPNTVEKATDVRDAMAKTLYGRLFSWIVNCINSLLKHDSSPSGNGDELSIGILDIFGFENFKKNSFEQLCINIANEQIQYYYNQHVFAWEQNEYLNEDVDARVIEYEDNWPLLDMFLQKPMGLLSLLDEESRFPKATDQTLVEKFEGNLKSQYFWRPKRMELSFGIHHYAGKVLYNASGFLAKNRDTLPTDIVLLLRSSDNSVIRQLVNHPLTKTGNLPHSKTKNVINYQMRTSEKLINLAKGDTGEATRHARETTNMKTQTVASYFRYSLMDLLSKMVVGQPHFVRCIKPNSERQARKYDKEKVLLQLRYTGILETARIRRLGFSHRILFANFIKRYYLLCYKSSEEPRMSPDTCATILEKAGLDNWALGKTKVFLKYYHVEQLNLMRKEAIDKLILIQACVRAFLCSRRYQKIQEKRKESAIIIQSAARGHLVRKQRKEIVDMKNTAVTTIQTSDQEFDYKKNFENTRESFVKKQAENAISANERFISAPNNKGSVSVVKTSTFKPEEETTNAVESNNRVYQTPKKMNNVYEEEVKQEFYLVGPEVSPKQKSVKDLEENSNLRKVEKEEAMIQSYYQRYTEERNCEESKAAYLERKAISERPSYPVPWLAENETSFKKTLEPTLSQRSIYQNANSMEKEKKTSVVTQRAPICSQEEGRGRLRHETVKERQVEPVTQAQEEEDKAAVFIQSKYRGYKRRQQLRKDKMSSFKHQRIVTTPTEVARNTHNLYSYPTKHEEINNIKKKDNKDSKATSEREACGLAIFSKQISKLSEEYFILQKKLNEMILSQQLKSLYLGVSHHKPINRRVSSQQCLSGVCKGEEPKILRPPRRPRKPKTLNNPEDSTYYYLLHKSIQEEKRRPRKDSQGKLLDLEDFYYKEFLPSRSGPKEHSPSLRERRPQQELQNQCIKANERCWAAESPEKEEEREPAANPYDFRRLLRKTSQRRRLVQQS
T9 sequence (Q8IU85 whole entry): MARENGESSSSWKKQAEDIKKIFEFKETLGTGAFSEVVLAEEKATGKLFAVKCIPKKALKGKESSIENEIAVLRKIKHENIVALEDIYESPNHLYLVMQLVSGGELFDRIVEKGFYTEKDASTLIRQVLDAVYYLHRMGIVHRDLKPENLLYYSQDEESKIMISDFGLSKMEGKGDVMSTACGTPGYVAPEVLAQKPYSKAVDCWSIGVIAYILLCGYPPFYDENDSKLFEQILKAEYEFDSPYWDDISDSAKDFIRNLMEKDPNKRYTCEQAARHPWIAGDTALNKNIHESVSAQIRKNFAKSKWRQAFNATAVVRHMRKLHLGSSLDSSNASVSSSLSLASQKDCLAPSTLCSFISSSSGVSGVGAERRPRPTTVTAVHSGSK
T5 sequence (Q15746 whole entry): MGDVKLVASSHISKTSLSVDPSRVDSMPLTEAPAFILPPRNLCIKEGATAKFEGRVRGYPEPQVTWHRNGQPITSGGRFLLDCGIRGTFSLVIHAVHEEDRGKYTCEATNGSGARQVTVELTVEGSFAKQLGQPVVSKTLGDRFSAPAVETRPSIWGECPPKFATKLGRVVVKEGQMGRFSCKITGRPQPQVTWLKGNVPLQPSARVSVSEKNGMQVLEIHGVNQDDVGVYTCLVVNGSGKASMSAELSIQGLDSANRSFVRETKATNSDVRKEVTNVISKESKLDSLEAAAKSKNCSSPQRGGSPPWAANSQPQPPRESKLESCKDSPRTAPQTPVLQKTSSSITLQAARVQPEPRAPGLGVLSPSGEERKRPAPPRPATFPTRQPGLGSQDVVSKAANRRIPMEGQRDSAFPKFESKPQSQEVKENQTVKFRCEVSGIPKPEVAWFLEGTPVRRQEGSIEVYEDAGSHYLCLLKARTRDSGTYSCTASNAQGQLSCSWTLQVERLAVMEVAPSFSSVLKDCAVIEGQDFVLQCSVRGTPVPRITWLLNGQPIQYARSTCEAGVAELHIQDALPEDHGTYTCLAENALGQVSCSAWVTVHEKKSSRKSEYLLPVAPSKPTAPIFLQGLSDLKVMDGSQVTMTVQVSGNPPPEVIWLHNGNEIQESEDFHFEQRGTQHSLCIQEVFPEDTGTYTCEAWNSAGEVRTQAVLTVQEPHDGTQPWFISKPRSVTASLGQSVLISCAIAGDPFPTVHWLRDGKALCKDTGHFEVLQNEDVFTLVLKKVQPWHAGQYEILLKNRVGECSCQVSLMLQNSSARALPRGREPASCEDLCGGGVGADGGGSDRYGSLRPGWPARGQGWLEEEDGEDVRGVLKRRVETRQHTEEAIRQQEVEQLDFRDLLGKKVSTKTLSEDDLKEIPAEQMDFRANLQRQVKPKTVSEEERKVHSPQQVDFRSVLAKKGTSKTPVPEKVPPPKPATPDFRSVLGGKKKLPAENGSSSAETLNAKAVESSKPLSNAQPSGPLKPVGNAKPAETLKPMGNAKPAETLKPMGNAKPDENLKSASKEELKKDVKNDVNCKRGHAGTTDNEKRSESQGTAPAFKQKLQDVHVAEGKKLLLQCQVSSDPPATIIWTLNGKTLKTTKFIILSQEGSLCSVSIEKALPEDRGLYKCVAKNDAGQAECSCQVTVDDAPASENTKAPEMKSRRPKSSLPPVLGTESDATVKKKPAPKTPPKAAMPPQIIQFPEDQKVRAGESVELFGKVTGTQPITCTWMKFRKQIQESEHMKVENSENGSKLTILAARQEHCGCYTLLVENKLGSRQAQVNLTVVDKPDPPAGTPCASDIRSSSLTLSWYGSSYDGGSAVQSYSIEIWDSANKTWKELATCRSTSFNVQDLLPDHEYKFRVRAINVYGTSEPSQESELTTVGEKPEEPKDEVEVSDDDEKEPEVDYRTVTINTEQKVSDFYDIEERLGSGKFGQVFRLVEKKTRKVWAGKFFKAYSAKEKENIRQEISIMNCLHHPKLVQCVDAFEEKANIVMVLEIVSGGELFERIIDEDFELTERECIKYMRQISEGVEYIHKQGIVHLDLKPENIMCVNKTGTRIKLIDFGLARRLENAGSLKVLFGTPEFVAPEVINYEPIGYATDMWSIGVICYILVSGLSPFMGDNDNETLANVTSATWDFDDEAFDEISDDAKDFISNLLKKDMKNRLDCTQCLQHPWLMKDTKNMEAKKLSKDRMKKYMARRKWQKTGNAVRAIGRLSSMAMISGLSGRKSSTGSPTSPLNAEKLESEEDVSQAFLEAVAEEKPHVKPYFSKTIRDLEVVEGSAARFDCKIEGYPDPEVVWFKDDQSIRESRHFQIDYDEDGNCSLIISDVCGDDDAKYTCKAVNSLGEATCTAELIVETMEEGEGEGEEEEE
T17 sequence (Q13188 whole entry): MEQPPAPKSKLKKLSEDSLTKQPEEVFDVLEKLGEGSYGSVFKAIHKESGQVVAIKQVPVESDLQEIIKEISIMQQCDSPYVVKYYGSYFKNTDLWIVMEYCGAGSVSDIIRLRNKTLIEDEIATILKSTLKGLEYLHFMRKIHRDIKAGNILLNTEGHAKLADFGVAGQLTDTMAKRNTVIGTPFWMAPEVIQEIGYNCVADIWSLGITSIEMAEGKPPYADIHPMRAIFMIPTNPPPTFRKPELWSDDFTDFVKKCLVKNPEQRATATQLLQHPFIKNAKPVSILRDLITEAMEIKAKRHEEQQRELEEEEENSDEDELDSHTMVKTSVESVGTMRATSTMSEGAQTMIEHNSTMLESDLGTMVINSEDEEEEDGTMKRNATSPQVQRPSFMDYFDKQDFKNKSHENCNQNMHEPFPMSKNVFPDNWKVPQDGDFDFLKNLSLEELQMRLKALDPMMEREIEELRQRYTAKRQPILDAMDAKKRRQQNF

In general, IC50 refers to the concentration that gives 50% inhibition. The low end stands for inhibition by little substance, the high end for a need for much substance. `COc1nc2ccc(NCC3CCN(C)CC3)nn2c1C(=O)Nc1cccc(OC(F)(F)F)c1` [Cpd 1]: on HASPIN, the half-inhibitory concentration (IC50) is above 10000 nM. Moreover, the “tumor formation / growth from pre-treated cells” value in [1] is on record as “complete inhibition in tumor formation”.

For the compound `CN1CCC(CNc2ccc3ncc(C(=O)Nc4cccc(OC(F)(F)F)c4)n3n2)CC1` [Cpd 2], the remaining binding at 1 µM on ARK5 was found to be 88%; on MYO3A, 91%; at JAK3(JH1D.-cat.), 100%; at MYLK it was 100%; at STK39, 99%; at LZK, 92%. The remaining binding at 1 µM at PIK3CA(Q546K) is 89%; on CAMK1D, 94%; at TAOK3, 99%; at LIMK1 it was 79%; at LCK, 77%; at p38-beta, 100%. Moreover, the remaining binding at 1 µM was 100% on HUNK; 100% on MELK; 100% on ACVRL1; 100% at MST2; 97% at CDK11; 90% on PIK3CA(M1043I). For the same compound, the IC50 on HASPIN (kinase orthogonal assay) was determined as 915 nM. The “tumor formation / growth from pre-treated cells” value in assay [1] is on record as “reduced”.
